How the values were obtained:
[1] = biological target: PRMT5-MEP50 (Homo sapiens, UniProt O14744); assay: PRMT5 assay (3H-SAM flashplate); conditions: Table 4; PRMT5 biochemical assay
Procedure: Assays were performed in a 25 μl-volume in 384-well V-bottom polypropylene microplates (Greiner Bio-One, cat. No. 781280) at ambient temperature. Optimized 1× assay buffer was 20 mM Tris-HCl pH 8.0, 1 mM DTT, […]. For compound screening PRMT5-MEP50 (final concentration, f.c.=2.5 nM) was added using a Multidrop Combi (ThermoFisher Scientific, Waltham, MA) and preincubated for 5 min. Reactions were started by adding 3′ biotinylated histone H4 peptide acetylated on serine 1 (Ac-[…]-Biotin) (f.c.=100 nM) and 3H-SAM (f.c.=250 nM) substrates. Reactions proceeded for 60 minutes and were quenched with excess non-radioactive SAM (f.c.=15 μM). The reactions were then transferred to streptavidin-coated flashplates and incubated for 2 hours at 25° C. Following two washing cycles with 0.1% Tween-20, the plates were sealed and read on a TopCount (PerkinElmer, Waltham, MA) plate-based scintillation counter. For determination of kinetic parameters, reaction times were optimized so that measurements were taken during the initial velocity phase of the reaction.

[2] = biological target: METTL3/METTL14 (Homo sapiens, UniProt Q86U44); assay: METTL3-14 standard enzyme assay (3H-SAM flashplate); conditions: Table 4; METTL3 biochemical assay
In short: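 METTL3/METTL14 (2.5 nM) preincubated 5 min, then reacted with 3′-biotinylated RNA UCUGGACUAAA (100 nM) and 3H-SAM (100 nM) for 30 min at ambient temperature in 20 mM HEPES pH 7.5, 50 mM KCl, 250 μM MgCl2, 1 mM DTT. Quenched with 15 μM cold SAM; product captured on streptavidin flashplates, scintillation counted.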

METTL3/METTL14, sequence (Q86U44 whole entry, species assumed): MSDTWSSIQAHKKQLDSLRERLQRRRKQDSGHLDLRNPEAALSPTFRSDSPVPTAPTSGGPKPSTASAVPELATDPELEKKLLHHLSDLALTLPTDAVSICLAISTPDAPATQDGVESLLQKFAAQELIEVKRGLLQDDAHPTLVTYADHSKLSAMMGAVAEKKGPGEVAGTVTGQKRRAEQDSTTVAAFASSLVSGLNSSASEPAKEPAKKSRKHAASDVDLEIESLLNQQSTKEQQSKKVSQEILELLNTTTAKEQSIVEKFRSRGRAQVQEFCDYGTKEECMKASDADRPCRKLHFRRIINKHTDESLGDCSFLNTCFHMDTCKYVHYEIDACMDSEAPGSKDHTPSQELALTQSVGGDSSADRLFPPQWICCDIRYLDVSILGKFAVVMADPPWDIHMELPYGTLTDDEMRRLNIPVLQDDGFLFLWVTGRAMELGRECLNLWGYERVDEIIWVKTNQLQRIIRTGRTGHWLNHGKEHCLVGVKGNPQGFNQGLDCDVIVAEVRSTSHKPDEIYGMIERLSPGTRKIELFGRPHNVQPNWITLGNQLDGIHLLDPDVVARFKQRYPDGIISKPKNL
METTL3/METTL14, sequence (Q9HCE5 whole entry partner, species assumed): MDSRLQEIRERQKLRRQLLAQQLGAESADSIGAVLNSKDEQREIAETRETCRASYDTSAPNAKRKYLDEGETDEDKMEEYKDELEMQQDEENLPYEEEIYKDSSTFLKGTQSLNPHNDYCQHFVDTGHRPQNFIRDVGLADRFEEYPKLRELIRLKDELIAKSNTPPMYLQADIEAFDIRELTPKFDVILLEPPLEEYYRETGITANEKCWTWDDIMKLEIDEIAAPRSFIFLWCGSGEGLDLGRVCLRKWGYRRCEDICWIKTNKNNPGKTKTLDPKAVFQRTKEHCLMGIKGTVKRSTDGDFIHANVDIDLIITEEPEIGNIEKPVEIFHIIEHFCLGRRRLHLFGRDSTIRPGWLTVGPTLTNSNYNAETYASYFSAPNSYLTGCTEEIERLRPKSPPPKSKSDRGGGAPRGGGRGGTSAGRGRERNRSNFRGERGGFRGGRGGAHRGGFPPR
PRMT5-MEP50, sequence (O14744 whole entry): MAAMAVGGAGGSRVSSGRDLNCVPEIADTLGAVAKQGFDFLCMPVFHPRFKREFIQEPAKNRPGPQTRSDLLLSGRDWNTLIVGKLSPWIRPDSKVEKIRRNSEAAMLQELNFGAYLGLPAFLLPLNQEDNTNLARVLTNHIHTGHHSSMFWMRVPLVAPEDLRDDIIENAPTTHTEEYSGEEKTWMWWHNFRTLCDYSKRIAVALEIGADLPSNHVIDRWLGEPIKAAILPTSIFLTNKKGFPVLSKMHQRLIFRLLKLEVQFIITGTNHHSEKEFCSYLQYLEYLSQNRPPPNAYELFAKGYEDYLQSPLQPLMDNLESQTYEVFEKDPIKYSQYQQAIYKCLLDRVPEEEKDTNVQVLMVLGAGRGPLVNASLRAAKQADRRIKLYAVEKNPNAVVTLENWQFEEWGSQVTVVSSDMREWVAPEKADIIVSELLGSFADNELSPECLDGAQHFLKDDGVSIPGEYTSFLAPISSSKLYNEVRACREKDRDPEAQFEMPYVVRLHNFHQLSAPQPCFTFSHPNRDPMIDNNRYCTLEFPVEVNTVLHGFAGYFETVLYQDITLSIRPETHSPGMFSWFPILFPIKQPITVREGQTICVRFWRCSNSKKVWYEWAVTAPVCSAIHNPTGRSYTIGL
PRMT5-MEP50, sequence (Q9BQA1 whole entry partner): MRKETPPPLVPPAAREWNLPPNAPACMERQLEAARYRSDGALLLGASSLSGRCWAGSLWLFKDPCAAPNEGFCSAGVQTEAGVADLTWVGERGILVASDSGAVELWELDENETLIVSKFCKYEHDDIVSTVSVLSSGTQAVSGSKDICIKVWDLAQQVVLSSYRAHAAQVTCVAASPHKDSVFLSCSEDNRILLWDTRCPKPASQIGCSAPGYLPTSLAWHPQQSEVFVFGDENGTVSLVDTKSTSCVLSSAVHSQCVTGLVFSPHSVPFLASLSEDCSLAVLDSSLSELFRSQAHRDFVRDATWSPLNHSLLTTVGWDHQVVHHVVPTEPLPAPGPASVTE

Molecule	IC50 [1] [nM]	IC50 [2] [nM]
Cn1ccc(-c2cn([C@@H]3O[C@H](C(=O)NC4CCN(Cc5ccccc5)CC4)[C@@H](O)[C@H]3O)c3ncnc(N)c23)n1 [Compound I-201]	10 to 100	10 to 100
Cn1ccc(-c2cn([C@@H]3O[C@H](C(=O)NC4CCN5CCCC5C4)[C@@H](O)[C@H]3O)c3ncnc(N)c23)n1 (some centres unmarked) [Compound I-206]	100 to 1000	100 to 1000
Cn1ccc(-c2cn([C@@H]3O[C@H](C(=O)NC4CCn5ccnc5C4)[C@@H](O)[C@H]3O)c3ncnc(N)c23)n1 (some centres unmarked) [Compound I-207]	100 to 1000	100 to 1000
Cn1ccc(-c2cn([C@@H]3O[C@H](C(=O)NC4CCC5(CC4)CNC5)[C@@H](O)[C@H]3O)c3ncnc(N)c23)n1 [Compound I-208]	100 to 1000	100 to 1000
Cn1ccc(-c2cn([C@@H]3O[C@H](C(=O)NC4CCS(=O)(=O)C4)[C@@H](O)[C@H]3O)c3ncnc(N)c23)n1 (some centres unmarked) [Compound I-213]	≥ 1000	≥ 1000
Cn1ccc(-c2cn([C@@H]3O[C@H](C(=O)N[C@H]4C[C@@H](O)C4)[C@@H](O)[C@H]3O)c3ncnc(N)c23)n1 [Compound I-214]	≥ 1000	≥ 1000
Cn1ccc(-c2cn([C@@H]3O[C@H](C(=O)N[C@H]4C[C@H](O)C4)[C@@H](O)[C@H]3O)c3ncnc(N)c23)n1 [Compound I-215]	≥ 1000	≥ 1000
CN1CC(NC(=O)[C@H]2O[C@@H](n3cc(-c4ccn(C)n4)c4c(N)ncnc43)[C@H](O)[C@@H]2O)C1 [Compound I-216]	10 to 100	100 to 1000
Cn1ccc(-c2cn([C@@H]3O[C@H](C(=O)N4CCc5[nH]cnc5C4)[C@@H](O)[C@H]3O)c3ncnc(N)c23)n1 [Compound I-217]	10 to 100	100 to 1000
Cn1ccc(-c2cn([C@@H]3O[C@H](C(=O)NC4CCC4)[C@@H](O)[C@H]3O)c3ncnc(N)c23)n1 [Compound I-218]	≥ 1000	100 to 1000
Cn1ccc(-c2cn([C@@H]3O[C@H](C(=O)NC4CCN(c5ccccc5)CC4)[C@@H](O)[C@H]3O)c3ncnc(N)c23)n1 [Compound I-221]	100 to 1000	100 to 1000
Cn1ccc(-c2cn([C@@H]3O[C@H](C(=O)NC4CCN(c5ccccn5)CC4)[C@@H](O)[C@H]3O)c3ncnc(N)c23)n1 [Compound I-222]	≥ 1000	100 to 1000
Cn1ccc(-c2cn([C@@H]3O[C@H](C(=O)NC4CCN(CC5CCC5)CC4)[C@@H](O)[C@H]3O)c3ncnc(N)c23)n1 [Compound I-223]	10 to 100	10 to 100
Cn1ccc(-c2cn([C@@H]3O[C@H](C(=O)NC4CCN(C5CCC5)CC4)[C@@H](O)[C@H]3O)c3ncnc(N)c23)n1 [Compound I-224]	100 to 1000	100 to 1000
Cn1ccc(-c2cn([C@@H]3O[C@H](C(=O)NC4CCN(C(=O)OCc5ccccc5)CC4)[C@@H](O)[C@H]3O)c3ncnc(N)c23)n1 [Compound I-225]	100 to 1000	100 to 1000
CN1CCC[C@H](NC(=O)[C@H]2O[C@@H](n3cc(-c4ccn(C)n4)c4c(N)ncnc43)[C@H](O)[C@@H]2O)C1 [Compound I-230]	10 to 100	≥ 1000
C[C@H]1C[C@@H](NC(=O)[C@H]2O[C@@H](n3cc(-c4ccn(C)n4)c4c(N)ncnc43)[C@H](O)[C@@H]2O)CCN1C [Compound I-232]	100 to 1000	100 to 1000
CC(=O)NCCCN(C(=O)[C@H]1O[C@@H](n2cc(-c3ccn(C)n3)c3c(N)ncnc32)[C@H](O)[C@@H]1O)C1CCN(C)CC1 [Compound I-235]	100 to 1000	≥ 1000
(2S,3S,4R,5R)-5-[4-amino-5-(1-methyl-1H-pyrazol-3-yl)-7H-pyrrolo[2,3-d]pyrimidin-7-yl]-3,4-dihydroxy-N-{3-[(methylcarbamoyl)amino]propyl}-N-(1-methylpiperidin-4-yl)oxolane-2-carboxamide [Compound I-50]	100 to 1000	≥ 1000

— patent US20240051985A1, “METTL3 MODULATORS” (ACCENT THERAPEUTICS, INC., priority 2020, published 2024)
